Experimental data published in patent EP0319030A1, “Aminopropanol derivatives of 1,4:3,6-dianhydro-hexitol nitrates, processes for their preparation and their use as medicaments” (Heinrich Mack Nachf., priority 1987, dated 1989).
Marks after values point to notes of the source that are not given here.

Tests used:
Format in all cases: in vivo
anesthetized rat = assay: Lypressin-induced T-wave increase in the ECG (lypressin coronary spasm), method of M. Leitold et al.
Text: (§1) In particular, they have a pronounced cardiovascular action. On isolated strips of veins from dogs, they act against the K⁺-induced contraction in a lower concentration than on aorta strips. On isolated hearts from guinea pigs, they increase coronary flow as a function of the dose. On anesthetized rats, they prevent lypressin coronary spasm as a function of the dose and significiantly increase the survival rate of rats following acute cardiac infarction. On normotensive conscious dogs, they lower the systolic blood pressure for a period of 6-8 hours after oral administration. On artifically respirated anesthetized, thoraxotomized dogs, they reduce the mean arterial pressure, the left ventricular systolic pressure, the left ventricular end diastolic pressure and the pressure in the Arteria pulmonalis and reduce the peripheral vascular resistance. In contrast to the known organic nitrate esters, they also lead to a long-lasting reduction in the systolic blood pressure of spontaneously hypertensive rats. Such an action profile is not known for any of the substances of similar structure which have already been described.

rats = assay: Survival rate after acute coronary ligature, method of I. Lepran et al.; conditions: 100.0 mg/kg orally 5 minutes before ligature
Text: as §1

Mice = assay: Peroral tolerance in mice; conditions: 500 mg/kg perorally, mice
Text: Set forth below is data obtained on the compounds of Examples 17, 19 and 20 that illustrates the pharmacological action of the compounds of the present invention.

conscious beagle dogs = assay: Systolic blood pressure and heart rate following peroral administration; conditions: 5.0 mg/kg peroral, mean ± SEM
Text: as §1

Compound: COc1ccccc1N1CCN(CC(O)CO[C@@H]2CO[C@H]3[C@@H]2OC[C@H]3O[N+](=O)[O-])CC1 (some centres unmarked) [Example 19, 5-O-<3-[4-(2-Methoxyphenyl)-piperzinyl]-2-hydroxypropyl>-isomannide-2-nitrate]
- ED50 (anesthetized rat; Rattus norvegicus, po, 0.5 h, perorally 30 minutes before the lypressin injection, dose column in mg/kg): 46.7 mg/kg
- Duration of action at the ED50 dose (anesthetized rat; perorally at various times before the lypressin injection): 4 h
- Number of rats surviving after an acute coronary ligature, 24 hours (rats; control 21/80): 15/20*
- Number of rats surviving after an acute coronary ligature, 7 days (rats; control 21/80): 15/20*
- Number of rats surviving after an acute coronary ligature, 60 minutes (rats; control 23/80): 15/20*
- tolerance (clinical symptoms, fatal consequences) (Mice): without clinical symptoms and without fatal consequences
- HR (heart rate), Action of substance after 1 hours (conscious beagle dogs): 101 ± 5 Bts/M
- HR (heart rate), Action of substance after 2 hours (conscious beagle dogs): 90 ± 5 Bts/M
- HR (heart rate), Action of substance after 4 hours (conscious beagle dogs): 85 ± 5 Bts/M
- HR (heart rate), Action of substance after 6 hours (conscious beagle dogs): 86 ± 5 Bts/M
- SBP (systolic blood pressure), Action of substance after 1 hours (conscious beagle dogs): 105 ± 8 mmHg
- SBP (systolic blood pressure), Action of substance after 2 hours (conscious beagle dogs): 105 ± 5 mmHg
- SBP (systolic blood pressure), Action of substance after 4 hours (conscious beagle dogs): 118 ± 6 mmHg
- SBP (systolic blood pressure), Action of substance after 6 hours (conscious beagle dogs): 126 ± 6 mmHg
